Columns and labels:
[1] = system: cholesterol oxidase; experiment: Inhibition of the enzyme; assay type: biochemical, Corynebacterium cholesterolicum
[2] = system: cholesterol oxidase; experiment: Action and substrate specificity: relative activity by hydrogen peroxide formation (peroxidase/4-aminoantipyrine/phenol, absorbance at 500 nm); assay type: biochemical, Corynebacterium cholesterolicum
Protocol: All the above-mentioned values of relative activity (%) refer to the relative amounts of hydrogen peroxide formed from the substances oxidized by cholesterol oxidase, where the activity to cholesterol is taken as 100. The activity was measured by the following procedure.
A substrate solution was prepared by mixing 50 microliter of a 0.38 micromolar solution of cholesterol in isopropanol with 3 milliliter of 0.1 M phosphate buffer (pH 7.0; it contains 0.82 millimoles of 4-aminoantipyrine, 14 millimoles of phenol, 0.17 millimoles of Carbowax 6000 and 0.3% Triton X-100). The resulting substrate solution was incubated for 5 minutes in a cell of light path, 10 mm, kept at 37° C.
50 microliter of an enzyme solution containing 2.5 U of peroxidase and 0.1 U of cholesterol oxidase was added. The increase in absorbance at 500 nm was measured at 37° C. The initial velocity was obtained from the increase in absorbance, from which the relative activity was computed. [Literature: Charles C. Allain, Lucy S. Poon, Cicely G. Chan, W. Richmond and Paul C. Fu, Clin. Chem. 20, 470 (1974)].

[3] = system: cholesterol oxidase; experiment: Km value by the ultraviolet absorption method; assay type: biochemical, Corynebacterium cholesterolicum
Protocol: (§1) Enzymatic activity was measured by ultraviolet absorption method [Clin. Chem. 20, 470 (1974)]. A substrate solution was prepared by dissolving 5 ml of a 300 mg/dl solution of cholesterol in isopropanol into 300 ml of phosphate buffer (pH 7.0) containing 0.05% of Triton X-100. 20 microliter of enzyme solution was added to 3.0 ml of the substrate solution, and the resulting mixture was reacted at 37° C for 15 minutes. Increase in the absorption at 240 nm, assignable to cholest-4-en-3-one resulting from the reaction, was measured.

[4] = assay type: physicochemical; conditions: treated at 30° C for 1 hour
Protocol: It keeps stable in the pH range of 5-9 when treated at 30° C for 1 hour.

[5] = Relative activities of various enzymes exhibited to pregnenolone and cholesterol; assay type: biochemical; conditions: ratio of activity to pregnenolone over cholesterol; source of values for known enzymes not stated
Text: This enzyme oxidizes the hydroxyl group of steroids at […], and exerts no action upon other position of hydroxyl groups, such as 3α, 17β, etc., nor upon ester groups.

[6] = Optimum pH and optimum temperature for the action of the enzyme; assay type: biochemical
Protocol: The optimum pH is in the vicinity of 7.0 when the substrate is cholesterol.
When the reaction time is 15 minutes, the optimum temperature is 40° C.
as §1

[7] = Isoelectric point by isoelectric focusing; assay type: physicochemical; conditions: pH, carrier ampholyte pH 3-10, 900 V, 50 hours, 4° C
Protocol: The enzyme has an isoelectric point of pH 8.7, as measured by the method of isoelectric focusing. Thus, 10 mg of a purified enzyme was introduced into a 110 ml column packed with a carried ampholyte kept at pH 3-10 [LKB-Producter, commercial name of a product manufactured by AB Co.; cf. Biochem. Biophys. Acta, 133, 435 (1967)]. An electric current was passed at a voltage of 900 V for a period of 50 hours, while the column was cooled to 4° C.

[8] = relative amounts of hydrogen peroxide formed, activity to cholesterol taken as 100, initial velocity, 37° C, pH 7.0

Row | Compound | Relative activity (%) [2, 8] [%] | other results
1 | Oc1cccc2cccnc12 [8-hydroxyquinoline] |  | Inhibition of the enzyme (in words) [1]: not inhibited
2 | [Ag+] [Ag^+] |  | Inhibition of the enzyme (in words) [1]: inhibited
3 | C[C@]12CC[C@@H](O)C[C@@H]1CC[C@@H]1[C@@H]2CC[C@]2(C)C(=O)CC[C@@H]12 [Androsterone] |  | Relative activity (%) ([2]; pH 7): 0%
4 | CC(=O)O[C@H]1CC[C@@]2(C)C(=CC[C@H]3[C@@H]4CC[C@H]([C@H](C)CCCC(C)C)[C@@]4(C)CC[C@@H]32)C1 [Cholesterol acetate] | 0 | 
5 | CC(C)CCC[C@@H](C)[C@H]1CC[C@H]2[C@@H]3CC=C4C[C@@H](O)CC[C@]4(C)[C@H]3CC[C@]12C [Cholesterol] | 100 | Km [3]: 54 µM
6 | C[C@H](CCC(=O)O)[C@H]1CC[C@H]2[C@@H]3[C@H](O)C[C@@H]4C[C@H](O)CC[C@]4(C)[C@H]3C[C@H](O)[C@]12C [Cholic acid] | 0 | 
7 | C[C@]12CC[C@H](O)CC1=CC[C@@H]1[C@@H]2CC[C@]2(C)C(=O)CC[C@@H]12 [Dehydro-epiandrosterone] | 57 | 
8 | C[C@]12CC[C@H](O)C[C@H]1CC[C@@H]1[C@@H]2CC[C@]2(C)[C@@H](C3=CC(=O)OC3)CC[C@]12O [Digitoxigenin] | 0 | 
9 | C[C@@H]1CC[C@@]2(OC1)O[C@H]1C[C@H]3[C@@H]4CC=C5C[C@@H](O)CC[C@]5(C)[C@H]4CC[C@]3(C)[C@H]1[C@@H]2C [Diosgenin] | 0 | 
10 | O=C(O)CN(CCN(CC(=O)O)CC(=O)O)CC(=O)O [EDTA] |  | Inhibition of the enzyme (in words) [1]: not inhibited
11 | CC(C)[C@@H](C)/C=C/[C@@H](C)[C@H]1CC[C@H]2C3=CC=C4C[C@@H](O)CC[C@]4(C)[C@H]3CC[C@]12C [Ergosterol] | 13 | 
12 | [Hg+2] [Hg^2+] |  | Inhibition of the enzyme (in words) [1]: inhibited
13 | CC(=O)[C@H]1CC[C@H]2[C@@H]3CC=C4C[C@@H](O)CC[C@]4(C)[C@H]3CC[C@]12C [Pregnenolone] | 416 | Km [3]: 31 µM
14 | CC[C@H](/C=C/[C@@H](C)[C@H]1CC[C@H]2[C@@H]3CC=C4C[C@@H](O)CC[C@]4(C)[C@H]3CC[C@]12C)C(C)C [Stigmasterol] | 17 | 
15 | C[C@]12CC[C@H]3[C@@H](CCC4=CC(=O)CC[C@@]43C)[C@@H]1CC[C@@H]2O [Testosterone] | 0 | 
16 | C=C1CC[C@H](O)C/C1=C/C=C1\CCC[C@]2(C)[C@@H]([C@H](C)CCCC(C)C)CC[C@@H]12 [Vitamin D3] | 0 | 
17 | c1cnc2c(c1)ccc1cccnc12 [o-phenanthroline] |  | Inhibition of the enzyme (in words) [1]: not inhibited
18 | O=C(O)c1cc[c]([Hg][Cl])cc1 [p-chloromercuribenzoate] |  | Inhibition of the enzyme (in words) [1]: inhibited
19 | CC(C)CCC[C@@H](C)[C@H]1CC[C@H]2[C@@H]3CC[C@H]4C[C@@H](O)CC[C@]4(C)[C@H]3CC[C@]12C [β-Cholestanol] | 43 | 
20 | C[C@]12CC[C@@H]3c4ccc(O)cc4CC[C@H]3[C@@H]1CC[C@@H]2O [β-Estradiol] | 0 | 
21 | CC[C@H](CC[C@@H](C)[C@H]1CC[C@H]2[C@@H]3CC=C4C[C@@H](O)CC[C@]4(C)[C@H]3CC[C@]12C)C(C)C [β-Sitosterol] | 54 | 
22 | cholesterol oxidase |  | pH range in which it keeps stable [4]: 5-9; relative activities exhibited to pregnenolone and cholesterol [5]: 4.16; optimum temperature for the action ([6]; reaction time 15 minutes): 40 °C; Optimum pH ([6]; substrate is cholesterol): ~7.0; isoelectric point [7]: 8.7
